From ChEMBL document CHEMBL3600338, “NMR-based conformational analysis of 2',6-disubstituted uridines and antiviral evaluation of new phosphoramidate prodrugs” (Bioorg Med Chem, 2015)
Activity calls are given as the source filed them.

Key:
[1] = system: Hepatitis C virus; assay: Antiviral activity against Hepatitis C virus genotype 1b Con1 in HuH 5-2 replicon system assessed as reduction of viral replication; assay type: functional; details: Hepacivirus hominis
[2] = system: Vero; assay: Antiviral activity against Coxsackievirus B3 Nancy infected in African green monkey Vero cells assessed as reduction of viral replication; assay type: functional, cell-based; details: Coxsackievirus B3 (strain Nancy)
[3] = system: Vero; assay: Antiviral activity against Coxsackievirus B4 E2 infected in African green monkey Vero cells assessed as reduction of viral replication; assay type: functional, cell-based; details: Coxsackievirus B4 (strain E2)
[4] = system: Poliovirus 1; assay: Antiviral activity against Poliovirus 1 Sabin infected in African green monkey BGM cells assessed as reduction of viral replication; assay type: functional, organism-based
[5] = system: Enterovirus A71; assay: Antiviral activity against Enterovirus 71 infected in human HeLa cells assessed as reduction of viral replication; assay type: functional, organism-based
[6] = system: rhinovirus B14; assay: Antiviral activity against Rhinovirus 14 infected in human HeLa cells assessed as reduction of viral replication; assay type: functional, organism-based
[7] = system: Chikungunya virus; assay: Antiviral activity against Chikungunya virus assessed as reduction of viral replication; assay type: functional

Measured: Activity

CC(C)OC(=O)[C@H](C)NP(=O)(OC[C@H]1OC(n2c(C#N)cc(=O)[nH]c2=O)[C@H](O)[C@@H]1O)Oc1ccccc1 (some centres not stated)
inactive: all assays above

CC(C)OC(=O)[C@H](C)NP(=O)(OC[C@H]1OC(n2c(C#N)cc(=O)[nH]c2=O)[C@](C)(O)[C@@H]1O)Oc1ccccc1 (some centres not stated)
inactive: all assays above

Cc1cc(=O)[nH]c(=O)n1C1O[C@H](COP(=O)(N[C@@H](C)C(=O)OC(C)C)Oc2ccccc2)[C@@H](O)[C@@]1(C)O (some centres not stated)
inactive: all assays above

Cc1cc(=O)[nH]c(=O)n1C1O[C@H](COP(=O)(N[C@@H](C)C(=O)OC(C)C)Oc2ccccc2)[C@@H](O)[C@H]1O (some centres not stated)
inactive: all assays above

CC(C)OC(=O)[C@H](C)NP(=O)(OC[C@H]1OC(n2c(I)cc(=O)[nH]c2=O)[C@H](O)[C@@H]1O)Oc1ccccc1 (some centres not stated)
inactive: all assays above

CC(C)OC(=O)[C@H](C)NP(=O)(OC[C@H]1OC(n2c(N=[N+]=[N-])cc(=O)[nH]c2=O)[C@H](O)[C@@H]1O)Oc1ccccc1 (some centres not stated)
inactive: all assays above
